This note sets out measurements from patent publication US8188090B2, “Naphthylacetic acids” (Hoffman-La Roche Inc., priority 2008, dated 2012).

The assay concerns the target T1, human CRTH2 (Homo sapiens, UniProt Q9Y5Y4).
T1 sequence (Q9Y5Y4 1-395): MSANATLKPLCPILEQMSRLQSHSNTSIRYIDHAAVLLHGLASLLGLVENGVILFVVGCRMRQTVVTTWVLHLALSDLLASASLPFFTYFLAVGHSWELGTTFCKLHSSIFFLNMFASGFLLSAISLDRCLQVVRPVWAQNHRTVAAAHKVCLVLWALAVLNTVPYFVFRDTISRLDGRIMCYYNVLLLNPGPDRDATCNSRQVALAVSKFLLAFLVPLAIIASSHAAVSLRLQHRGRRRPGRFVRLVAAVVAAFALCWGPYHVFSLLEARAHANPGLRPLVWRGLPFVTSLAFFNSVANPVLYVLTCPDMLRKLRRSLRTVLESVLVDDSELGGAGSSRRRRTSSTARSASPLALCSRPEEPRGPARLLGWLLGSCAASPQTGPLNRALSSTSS
Description: Human CRTH2 Receptor Binding Assay (whole cell, [3H]ramatroban). Set-up: expressed in transfected cells; host or cells: CHO-K1. Conditions: whole CHO-K1 cells stably expressing human CRTH2 and G-alpha16; 20 nM [3H]ramatroban; 1 hour, room temperature. An excerpt: A whole cell receptor binding assay using [^3H]ramatroban as the competing radioactive ligand was employed to evaluate the compound binding activity to human CRTH2. The radioactive ligand [^3H]ramatroban was synthesized according to Sugimoto et. al. (Eur. J. Pharmacol. 524, 30-37, 2005) to a specific activity of 42 Ci/mmol.
A cell line stably expressing human CRTH2 was established by transfecting CHO-K1 cells with two mammalian expression vectors that harbored human CRTH2 and G-alpha16 cDNAs, respectively, using FuGene® 6 transfection reagent (from Roche). Stable clones expressing CRTH2 were selected by staining each clone with BM16 (BD Pharmingen™ from BD Biosciences, a division of Becton, Dickinson and Company), which is a rat monoclonal antibody to human CRTH2. The cells were maintained as monolayer cultures in Ham's F-12 medium containing 10% fetal bovine serum, 100 units/mL penicillin, 100 μg/mL streptomycin, 2 mM glutamine, 0.5 mg/mL G418 (geneticin) for CRTH2, and 0.2 mg/mL hygromycin-B (for G-alpha 16). For whole cell receptor binding assay, the monolayer cells were rinsed once with PBS (phosphate buffered saline), dissociated using ethylenediaminetetraacetate (Versene™ EDTA from Lonza Inc.), and suspended in PBS containing 10 mM MgCl2 and 0.06% BSA (bovine serum albumin) at 1.5×10^6 cells/mL.
The binding reactions (0.2 mL) were performed in 96-well plates at room temperature in PBS containing 1.5×10^5 cells, 10 mM MgCl2, 0.06% BSA, 20 nM [^3H]ramatroban, and test compound at various concentrations. After 1 hour of binding reactions, the cells were harvested on GF™/B filter microplates (microtiter plates with embedded glass fiber from PerkinElmer, Inc.) and washed 5 times with PBS using a Filtermate™ Harvester (a cell harvester that harvests and washes cells from microplates from PerkinElmer, Inc.). The radioactivities bound to the cells were determined using a microplate scintillation counter (TopCount® NXT, from PerkinElmer, Inc.) after adding 50 μL of Microscint™ 20 scintillation fluid (from PerkinElmer, Inc.) to each well of the filter plates. The radioactivity from non-specific binding was determined by replacing compound with 10 μM of 15(R)-15-methyl PGD2 (from Cayman Chemical Company) in the reaction mixtures. The radioactivity bound to the cells in the absence of compound (total binding) was determined by replacing compound with 0.25% of DMSO (dimethyl sulfoxide) in the reaction mixture. Specific binding data were obtained by subtracting the radioactivity of non-specific binding from each binding data.
The IC50 value is defined as the concentration of the tested compound that is required for 50% inhibition of total specific binding. In order to calculate the IC50 value, the percent inhibition data were determined for 7 concentrations for each compound. The percent inhibition for a compound at each concentration was calculated according to the following formula, [1-(specific binding in the presence of compound)/(total specific binding)]×100. The IC50 value was then obtained by fitting the percent inhibition data to a sigmoidal dose-response (4 parameter logistic) model in the XLfit® software Excel add-in program [from ID Business Solutions Ltd., model 205, where F(x)=(A+(B−A)/(1+((C/x)^D)))].
A word on the IC50: it is the concentration at which inhibition is half-maximal. Read a low IC50 as greater potency. `Cc1c(CC(=O)O)cc2ccc(F)cc2c1C(=O)N1CCN(c2ccccc2)CC1` [Example 2-4, [6-Fluoro-3-methyl-4-(4-phenyl-piperazine-1-carbonyl)-naphthalen-2-yl]-acetic acid] yielded an IC50 of 59.1 nM.

Consider `O=C(O)Cc1cc(OC2CCN(C(=O)C3CCCC3)CC2)c2cc(F)ccc2c1` [Example 5-5, [4-(1-Cyclopentanecarbonyl-piperidin-4-yloxy)-6-fluoro-naphthalen-2-yl]-acetic acid], for which the IC50 came to 53.3 nM.

Molecule `CS(=O)(=O)N1CCC(Oc2cc(CC(=O)O)cc3ccc(F)cc23)CC1` [Example 4-1, [6-Fluoro-4-(1-methanesulfonyl-piperidin-4-yloxy)-naphthalen-2-yl]-acetic acid] had an IC50 of 9.3 nM.

On to `Cc1c(CC(=O)O)cc2ccc(F)cc2c1C(=O)N1CCN(S(=O)(=O)Cc2ccccc2)CC1` [Example 1-13, [6-Fluoro-3-methyl-4-(4-phenylmethanesulfonyl-piperazine-1-carbonyl)-naphthalen-2-yl]-acetic acid], for which the IC50 was found to be 5.4 nM.

`Cc1c(CC(=O)O)cc2ccc(F)cc2c1C(=O)N1CCN(S(=O)(=O)C(F)(F)F)CC1` [Example 1-5, [6-Fluoro-3-methyl-4-(4-trifluoromethanesulfonyl-piperazine-1-carbonyl)-naphthalen-2-yl]-acetic acid] showed an IC50 of 7.6 nM.

Regarding `CC(C)(C)OC(=O)N1CCC(Oc2cc(CC(=O)O)cc3ccc(F)cc23)CC1` [Example 3-1, 4-(3-Carboxymethyl-7-fluoro-naphthalen-1-yloxy)-piperidine-1-carboxylic acid tert-butyl ester], the half-inhibitory concentration (IC50) came out at 45.1 nM.

Molecule `O=C(O)Cc1cc(OC2CCN(C(=O)Nc3ccccc3F)CC2)c2cc(F)ccc2c1` [Example 6-2, {6-Fluoro-4-[1-(2-fluoro-phenylcarbomoyl)-piperidin-4-yloxy]-naphthalen-2-yl}-acetic acid] returned an IC50 of 4.3 nM.

In turn, `Cc1c(CC(=O)O)cc2ccc(F)cc2c1C(=O)N1CCN(c2ccccc2Cl)CC1` [Example 2-20, {4-[4-(2-Chloro-phenyl)-piperazine-1-carbonyl]-6-fluoro-3-methyl-naphthalen-2-yl}-acetic acid] gave an IC50 of 127 nM.

With `Cc1c(CC(=O)O)cc2ccc(F)cc2c1C(=O)N1CCN(c2ccc(C(F)(F)F)cn2)CC1` [Example 2-22, {6-Fluoro-3-methyl-4-[4-(5-trifluoromethyl-pyridin-2-yl)-piperazine-1-carbonyl]-naphthalen-2-yl}-acetic acid], the IC50 was 11.2 nM.

For the molecule `COc1ccc(N2CCN(C(=O)c3c(C)c(CC(=O)O)cc4ccc(F)cc34)CC2)cc1` [Example 2-12, {6-Fluoro-4-[4-(4-methoxy-phenyl)-piperazine-1-carbonyl]-3-methyl-naphthalen-2-yl}-acetic acid], the IC50 was 106 nM.

Molecule `COc1cc(OC)cc(N2CCN(C(=O)c3c(C)c(CC(=O)O)cc4ccc(F)cc34)CC2)c1` [Example 2-14, {4-[4-(3,5-Dimethoxy-phenyl)-piperazine-1-carbonyl]-6-fluoro-3-methyl-naphthalen-2-yl}-acetic acid] had an IC50 of 65.7 nM.

As for `Cc1c(CC(=O)O)cc2ccc(F)cc2c1C(=O)N1CCN(c2ccc(Cl)cc2)CC1` [Example 2-18, {4-[4-(4-Chloro-phenyl)-piperazine-1-carbonyl]-6-fluoro-3-methyl-naphthalen-2-yl}-acetic acid], the IC50 amounted to 9.4 nM.

Consider `Cc1c(CC(=O)O)cc2ccc(F)cc2c1C(=O)N1CCN(S(=O)(=O)c2ccccc2)CC1` [Example 1-9, [4-(4-Benzenesulfonyl-piperazine-1-carbonyl)-6-fluoro-3-methyl-naphthalen-2-yl]-acetic acid], for which the IC50 is 3.7 nM.

Turning to `Cc1c(CC(=O)O)cc2ccc(F)cc2c1C(=O)N1CCN(c2ccc(F)cc2F)CC1` [Example 2-13, {4-[4-(2,4-Difluoro-phenyl)-piperazine-1-carbonyl]-6-fluoro-3-methyl-naphthalen-2-yl}-acetic acid], the IC50 came to 139 nM.

In turn, `O=C(O)Cc1cc(OC2CCN(S(=O)(=O)C3CC3)CC2)c2cc(F)ccc2c1` [Example 4-4, [4-(1-Cyclopropanesulfonyl-piperidin-4-yloxy)-6-fluoro-naphthalen-2-yl]-acetic acid] registered an IC50 of 25.4 nM.

`O=C(O)Cc1cc(OC2CCN(S(=O)(=O)C3CCCC3)CC2)c2cc(F)ccc2c1` [Example 4-5, [4-(1-Cyclopentanesulfonyl-piperidin-4-yloxy)-6-fluoro-naphthalen-2-yl]-acetic acid] gave an IC50 of 9.9 nM.

As for `Cc1c(CC(=O)O)cc2ccc(F)cc2c1C(=O)N1CCN(c2ccc(C(F)(F)F)cc2)CC1` [Example 2-19, {6-Fluoro-3-methyl-4-[4-(4-trifluoromethyl-phenyl)-piperazine-1-carbonyl]-naphthalen-2-yl}-acetic acid], the IC50 came to 10 nM.

For the molecule `O=C(O)Cc1cc(OC2CCN(C(=O)Cc3ccccc3)CC2)c2cc(F)ccc2c1` [Example 5-10, [6-Fluoro-4-(1-phenylacetyl-piperidin-4-yloxy)-naphthalen-2-yl]-acetic acid], the IC50 is 2.9 nM.

Consider `O=C(O)Cc1cc(OC2CCN(S(=O)(=O)c3ccccc3)CC2)c2cc(F)ccc2c1` [Example 4-6, [4-(1-Benzenesulfonyl-piperidin-4-yloxy)-6-fluoro-naphthalen-2-yl]-acetic acid], for which the 50% inhibitory concentration (IC50) came out at 3.2 nM.

In turn, `Cc1cccc(N2CCN(C(=O)c3c(C)c(CC(=O)O)cc4ccc(F)cc34)CC2)c1` [Example 2-6, [6-Fluoro-3-methyl-4-(4-m-tolyl-piperazine-1-carbonyl)-naphthalen-2-yl]-acetic acid] displayed an IC50 of 81.5 nM.

Molecule `Cc1c(CC(=O)O)cc2ccc(F)cc2c1C(=O)N1CCN(S(=O)(=O)C2CC2)CC1` [Example 1-6, [4-(4-Cyclopropanesulfonyl-piperazine-1-carbonyl)-6-fluoro-3-methyl-naphthalen-2-yl]-acetic acid] came in with an IC50 of 9.1 nM.

In turn, `Cc1c(CC(=O)O)cc2ccc(F)cc2c1C(=O)N1CCN(c2ccccc2F)CC1` [Example 2-3, {6-Fluoro-4-[4-(2-fluoro-phenyl)-piperazine-1-carbonyl]-3-methyl-naphthalen-2-yl}-acetic acid] displayed an IC50 of 151 nM.

Molecule `CCS(=O)(=O)N1CCN(C(=O)c2cc(CC(=O)O)cc3ccc(F)cc23)CC1` [Example 1-2, [4-(4-Ethanesulfonyl-piperazine-1-carbonyl)-6-fluoro-naphthalen-2-yl]-acetic acid] returned an IC50 of 7.2 nM.

For the molecule `Cc1c(CC(=O)O)cc2ccc(F)cc2c1C(=O)N1CCN(S(=O)(=O)c2ccccc2F)CC1` [Example 1-14, {6-Fluoro-4-[4-(2-fluoro-benzenesulfonyl)-piperazine-1-carbonyl]-3-methyl-naphthalen-2-yl}-acetic acid], the IC50 was 4.8 nM.

Consider `Cc1c(CC(=O)O)cc2ccc(F)cc2c1C(=O)N1CCN(c2c(Cl)cncc2Cl)CC1` [Example 2-23, {4-[4-(3,5-Dichloro-pyridin-4-yl)-piperazine-1-carbonyl]-6-fluoro-3-methyl-naphthalen-2-yl}-acetic acid], for which the IC50 worked out at 63.5 nM.

For `O=C(O)Cc1cc(OC2CCN(C(=O)c3ccc(F)cc3)CC2)c2cc(F)ccc2c1` [Example 5-9, {6-Fluoro-4-[1-(4-fluoro-benzoyl)-piperidin-4-yloxy]-naphthalen-2-yl}-acetic acid], the IC50 came to 31.3 nM.
